“Also recorded” adds a separate entry of the source. Where a name gives a salt, the structure may show the parent alone.
Assays:
[1] = tested on: HUVECs; test: Intracellular BH4 and biopterins by HPLC in HUVECs; type: cell-based, human
From the text: (§1) Umbilical cords were collected at birth and human umbilical vein endothelial cells (HUVECs) were isolated and stored in liquid nitrogen according to standard operating procedures within a research tissue bank (Oxford Cardiovascular Tissue Bioresource; ethical approval 09/[…]/68, 07/[…]/148 and 11/SC/0230). For the purpose of the current study, HUVECs were identified from normotensive pregnancies and pregnancies complicated by preeclampsia, matched for maternal age and gestation. HUVECs and human uterine microvascular endothelial cells (HutMECs; Cat C-12295, Promocell) were cultured in EBM2 (endothelial basal medium) with bullet kit as recommended (Cat CC-3162, Lonza). All cell cultures were maintained in humidified 5% CO2 at 37° C. Primary HUVEC and HutMEC cells, obtained between passages 1-3 were and passages 4-6, respectively, were used for all experiments. sEnd.1 endothelial cells were grown in Dulbecco's modified Eagle's medium (Invitrogen) supplemented with glutamine (2 mmol/liter), penicillin (100 units/ml), and streptomycin (0.1 mg/ml).

[2] = target: T1, endothelial nitric oxide synthase (eNOS) (Homo sapiens, UniProt P29474); test: NO synthesis by eNOS (14C arginine to citrulline conversion) in HUVECs; type: cell-based; conditions: HUVECs from NT and PE pregnancies; sepiapterin 1 μM
T1 construct: endogenous in cells; host or cells: primary HUVECs (passages 1-3) from normotensive and pre-eclamptic pregnancies
From the text: Umbilical cords were collected at birth and human umbilical vein endothelial cells (HUVECs) were isolated and stored in liquid nitrogen according to standard operating procedures within a research tissue bank (Oxford Cardiovascular Tissue Bioresource; ethical approval 09/H0606/68, 07/H0606/148 and 11/SC/0230). For the purpose of the current study, HUVECs were identified from normotensive pregnancies and pregnancies complicated by preeclampsia, matched for maternal age and gestation. […] All cell cultures were maintained in humidified 5% CO2 at 37° C.
NO synthesis by eNOS was assessed by conversion of ^14C L-arginine to citrulline, in the presence and absence of N-monomethyl-L-arginine (1 mM, Sigma), as described previously^9. Briefly, HUVES were incubated for 4 hours at 37° C. in 200 μl Krebs-HEPES buffer containing ^14C L-arginine (2 μl of 50 μCi/mL). Samples were run on a SCX 300 cation exchange HPLC column (Sigma) with online scintillation detection. Background signals were corrected from samples with ^14C L-arginine alone without cells.

[3] = tested on: sEND.1 mouse endothelial cell line; test: Matrigel endothelial tube formation, sEND.1 cells with Gch1 siRNA; type: cell-based; conditions: sEND.1 treated with specific Gch1 siRNA; sepiapterin 1 μM
Description: (§2) To assess tube formation ability of endothelial cells, a 96-well plate was evenly coated with 50 μl of growth factor-reduced Matrigel (BD Biosciences, UK). Endothelial cells were plated at a density of 1×10^4 cells per well. The plate was incubated at 37° C. for 16 hours before photomicroscopy. Each sample was replicated in triplicate and the image of each well was taken at ×4 magnification using a Nikon Eclipse TE2000-U microscope (Nikon Ltd, London, UK). Images obtained from Matrigel assay were adjusted for mean brightness using acquisition software to control the bright field illumination of the microscope (Simple PCI version 6.6.0.0; Hamamatsu Corporation, Sewickley, PA). Images were saved as TIFF files, and tube formation analysed using AngioSys 1.0 (TCS Cell Works, UK). Image threshold was adjusted based on the intensity values of the monochrome image and each image then skeletonized to reduce to one pixel wide. […] The total length of lines was quantified in pixels (then converted to micrometers) and total number of branch points was recorded.
(§3) GCH1-specific, ON-TARGETplus SMARTpool siRNA was purchased from Dharmacon Thermo Scientific. […] The cells were cultured for 72 h, and gene silencing was detected by analysis of GTPCH protein expression by Western blotting using GTPCH-specific antibodies (a gift from S.Gross, Cornell University New York), in cells using standard protocols.

[4] = tested on: human uterine microvascular endothelial cells (HutMECs); test: Matrigel endothelial tube formation, HutMECs with GCH1 siRNA; type: cell-based; conditions: HutMECs treated with GCH1 siRNA; sepiapterin 1 μM
Description: as §2, §3

[5] = tested on: HUVECs; test: Matrigel endothelial tube formation, HUVECs from NT and PE pregnancies; type: cell-based, human; conditions: sepiapterin 1 μM
From the text: Umbilical cords were collected at birth and human umbilical vein endothelial cells (HUVECs) were isolated and stored in liquid nitrogen according to standard operating procedures within a research tissue bank (Oxford Cardiovascular Tissue Bioresource; ethical approval 09/H0606/68, 07/H0606/148 and 11/SC/0230). For the purpose of the current study, HUVECs were identified from normotensive pregnancies and pregnancies complicated by preeclampsia, matched for maternal age and gestation. HUVECs and human uterine microvascular endothelial cells (HutMECs; Cat C-12295, Promocell) were cultured in EBM2 (endothelial basal medium) with bullet kit as recommended (Cat CC-3162, Lonza). All cell cultures were maintained in humidified 5% CO2 at 37° C. […]
To assess tube formation ability of endothelial cells, a 96-well plate was evenly coated with 50 μl of growth factor-reduced Matrigel (BD Biosciences, UK). […] Images were saved as TIFF files, and tube formation analysed using AngioSys 1.0 (TCS Cell Works, UK). […] The total length of lines was quantified in pixels (then converted to micrometers) and total number of branch points was recorded.

[6] = tested on: sEnd.1 murine endothelial cells; test: Intracellular BH4 and biopterins by HPLC in sEnd.1 cells; type: cell-based, mouse
From the text: as §1, with “mg/ml). GCH1-specific, ON-TARGETplus SMARTpool siRNA was purchased from Dharmacon Thermo Scientific. […] The cells were cultured for 72 h, and gene silencing was detected by analysis of GTPCH protein expression by Western blotting using GTPCH-specific antibodies (a gift from S.Gross, Cornell University New York), in cells using standard protocols.” for “mg/ml).”

[7] = tested on: people with PKU; conditions: most people with PKU; cited from earlier work
[8] = tested on: uterine arteries; test: Wire myography of isolated uterine arteries with inhibitors in the bath; set-up: species or system mouse
From the text: All drugs used were purchased from Sigma Chemical Company.

[9] = target: T2, endothelial nitric oxide synthase (eNOS) (Mus musculus, UniProt P70313); test: eNOS activity (14C arginine to 14C citrulline) in sEnd.1 cells; type: cell-based; conditions: 5MTHF 10 μm, 16 h (FIG. 34)
T2 construct: Conversion of 14C arginine to 14C citrulline was used as a measure of endothelial nitric oxide synthase activity (eNOS); endogenous in cells; host or cells: sEnd.1 murine endothelial cell line

[10] = tested on: Gch1^fl/flTie2cre mice; test: Systolic blood pressure by tail-cuff plethysmography in pregnant mice; conditions: oral 5-MTHF begun at day 10.5 or 16.5
Description: Female Gch1^fl/flTie2cre mice and their Gch1^fl/fl littermates (thereafter referred to as wild-type) were used for all experiments at 10 to 16 weeks.
Systolic blood pressure and heart rate was determined using a computerized tail-cuff system (Visitech, USA) in conscious mice^6. Experiments were performed between the hours of 8 and 12 am. The animal tails were passed through a cylindrical latex tail-cuff and taped down to reduce movement. Twenty readings were taken per mouse of which the first 5 readings were discarded. The remaining 15 readings were used to calculate the mean systolic blood pressure and heart rate in each mouse.

[11] = Plasma and uterine artery biopterins by HPLC in treated pregnant mice; conditions: for systemic oxidation of BH4 to BH2: Gch1 deficient and control mice, oral supplementation
Description: After centrifugation at 13,200 rpm for 10 min at 4° C., supernatant was removed and ice-cold acid precipitation buffer (1 M phosphoric acid, 2 M trichloroacetic acid, 1 mM dithioerythritol) was added. Following centrifugation at 13,200 rpm for 10 min at 4° C., the supernatant was removed and injected onto the HPLC system.

[12] = tested on: women with pre-eclampsia; conditions: folic acid supplementation, clinical trials; cited from earlier work
[13] = tested on: sEnd.1 cells; test: Superoxide and ROS production by DHE HPLC in sEnd.1 cells; type: cell-based, mouse; conditions: folic acid 10 μm, 16 h (FIG. 33)
Description: Measurement of 2-hydroxyethidium formation by HPLC was used to quantify superoxide production, as previously described. Briefly, the cells were washed three times in PBS and incubated in Krebs-Hepes buffer in the presence or absence of I-NAME (100 μm). After 30 min, dihydroethidium (25 μm) was added, and the cells were then incubated for an additional 20 min at 37° C. The cells were then harvested by scraping, centrifuged, and lysed in ice-cold methanol. Hydrochloric acid (100 mm) was added (1:1 v/v) prior to loading into the autosampler for analysis. All of the samples were stored in darkened tubes and protected from light at all times. Separation of ethidium, oxyethidium, and dihydroethidium was performed using a gradient HPLC system (Jasco) with an ODS3 reverse phase column (250 mm, 4.5 mm; Hichrom), and quantified using a fluorescence detector set at 510 nm (excitation) and 595 nm (emission). A linear gradient was applied from Mobile phase A (0.1% TFA (v/v)) to Mobile phase B (0.1% TFA (v/v) in acetonitrile) over 23 min (30% acetonitrile to 50% acetonitrile).

## C[C@H](O)C(=O)C1=Nc2c(nc(N)[nH]c2=O)NC1 [sepiapterin]
[1]; HUVECs from hypertensive/pre-eclamptic pregnancies, sepiapterin 1 μM
  BH4 levels: normalized
[2]
  eNOS activity: normalized; also recorded: significantly increased
[3]
  endothelial cell growth and tubule formation: fully restored; also recorded: rescued
[4]
  endothelial cell growth and tubule formation: rescued
[5]
  endothelial cell growth and tubule formation: restored; also recorded: rescued
[6]; sEND.1 treated with specific Gch1 siRNA, sepiapterin 1 μM
  BH4 levels: increased

## C[C@H](O)[C@H](O)[C@H]1CNc2nc(N)[nH]c(=O)c2N1 [sapropterin dihydrochloride]
[7]
  clinical benefit in PKU: little or no benefit

## CN1c2c([nH]c(N)nc2=O)NC[C@@H]1CNc1ccc(C(=O)N[C@@H](CCC(=O)O)C(=O)O)cc1 [Arcofolin]
[1]; HUVECs from pregnancies with high blood pressure, 5MTHF 10 μm, 16 h at 37° C. (FIG. 36)
  BH4 levels: increases

## COC(=O)[C@@H](N)CCCNC(=N)N[N+](=O)[O-] [L-NAME]
[8]; Gch1^fl/flTie2cre uterine arteries, L-NAME 100 μM
  ACh vasorelaxations in the presence of L-NAME: did not significantly inhibit
[8]; uterine arteries of pregnant Gch1^fl/flTie2cre mice, L-NAME 100 μM
  vasoconstriction response to U46619 in the presence of L-NAME: unchanged
[8]; uterine arteries of pregnant wild-type mice, L-NAME 100 μM
  vasoconstriction response to U46619 in the presence of L-NAME: increased
[9]
  activity of endothelial nitric oxide synthase (L-arginine to L-citrulline conversion): inhibited

## CN1c2c(nc(N)[nH]c2=O)NC[C@@H]1CNc1ccc(C(=O)N[C@@H](CCC(=O)O)C(=O)O)cc1 [5-MTHF, 5-methyltetrahydrofolate]
[10]
  time from initiation of treatment to reduction in blood pressure: ≤ 2 days
[11]
  systemic oxidation of BH4 to BH2: prevented

## Nc1nc2ncc(CNc3ccc(C(=O)N[C@@H](CCC(=O)O)C(=O)O)cc3)nc2c(=O)[nH]1 [folic acid]
[6]; sEnd.1 cells, folic acid 10 μm, 16 h at 37° C., with or without MTX 1 μm (FIG. 28)
  BH4 levels: no effect
[12]
  clinical benefit in pre-eclampsia: no benefit
[13]
  generation of reactive oxygen species (ROS): increased

## C[C@H](O)[C@H](O)[C@H]1CNc2nc(N)[nH]c(=O)c2N1 [BH4, tetrahydrobiopterin]
[11]
  systemic oxidation of BH4 to BH2: rapidly oxidised
[11]; pregnant mice, E18.5, oral BH4 200 mg/kg/day
  BH4/BH2+B (total biopterins) ratio: reduction
[11]; pregnant mice, E18.5, oral in chow from 3 days before timed matings, BH4 200 mg/kg/day, 5-MTHF 15 mg/kg/day
  plasma BH4 levels: increased

## COc1ccc2c(c1)c(CC(=O)O)c(C)n2C(=O)c1ccc(Cl)cc1 [indomethacin]
[8]; uterine arteries, pregnant or non-pregnant wild-type and Gch1^fl/flTie2cre mice, indomethacin 10 μM, apamin 50 nM, charybdotoxin 100 nM
  endothelium-dependent vasodilation to ACh in the presence of inhibitors: minimal effect
